Experimental findings from ChEMBL document CHEMBL5463729, “Data for DCP probe BAY 1753011” (2023) are described below.

In data set [1] the target is T1, Alpha-1A adrenergic receptor (Homo sapiens) (UniProt P35348).
T1 sequence (whole entry): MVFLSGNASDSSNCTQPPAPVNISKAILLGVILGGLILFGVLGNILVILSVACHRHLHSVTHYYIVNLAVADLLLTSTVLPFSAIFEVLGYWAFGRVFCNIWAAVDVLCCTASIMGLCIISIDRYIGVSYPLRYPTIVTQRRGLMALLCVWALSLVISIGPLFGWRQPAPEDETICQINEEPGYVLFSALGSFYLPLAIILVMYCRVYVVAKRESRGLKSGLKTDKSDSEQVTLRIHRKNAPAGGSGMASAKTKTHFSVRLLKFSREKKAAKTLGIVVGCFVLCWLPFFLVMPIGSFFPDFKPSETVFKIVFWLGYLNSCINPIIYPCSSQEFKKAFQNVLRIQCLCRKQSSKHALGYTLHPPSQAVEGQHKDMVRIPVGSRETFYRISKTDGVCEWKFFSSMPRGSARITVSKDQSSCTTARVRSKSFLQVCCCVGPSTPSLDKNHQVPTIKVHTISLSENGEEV
Kind of data set: Inhibition of Adrenergic alpha1A at compound concentration of 10.0 uM in the Eurofins-Panlabs radioligand binding assay (Eurofins_assay_203110). Also noted: ligand concentration 0.25 nM. Conditions: Rattus norvegicus; Compound concentration 10.0 uM; call rule not given here.

Data set [2] has as its target Calcium/calmodulin-dependent protein kinase type 1B (Homo sapiens) (UniProt Q6P2M8). Kind of data set: Inhibition of CaMKIbeta(h) at 10.0 µM in the Eurofins Kinase panel. Conditions: Compound concentration 10.0 uM.
For data set [3], the target named is TRAF2 and NCK-interacting protein kinase (Homo sapiens) (UniProt Q9UKE5). Kind of data set: Inhibition of TNIK(h) at 10.0 µM in the Eurofins Kinase panel. As to conditions: Compound concentration 10.0 uM.
Another data set is filed under the species Oryctolagus cuniculus. Conditions: Compound concentration 10.0 uM.
In data set [4] the target is Growth hormone secretagogue receptor type 1 (Homo sapiens) (UniProt Q92847). As to conditions: Compound concentration 10.0 uM.
Data set [5] concerns the target Motilin receptor (Homo sapiens) (UniProt O43193). As to conditions: Compound concentration 10.0 uM.
Data set [6] deals with Kappa-type opioid receptor (Homo sapiens, UniProt P41145). The data set can be described thus: GPCRScan assay: inhibition of KOR. Set-up: radioligand conc. used [nm] 0.6 – 1.2, parental cells stable HEK.
Data set [7] deals with Epidermal growth factor receptor (Homo sapiens) (UniProt P00533). Kind of data set: Inhibition of Epidermal Growth Factor (EGF) at 10 µM in the Eurofins-Panlabs radioligand binding assay (Eurofins_assay_225510). Conditions: Compound concentration 10.0 uM.
In data set [8] the target is Sigma non-opioid intracellular receptor 1 (Homo sapiens) (UniProt Q99720). The data set can be described thus: Inhibition of Sigma 1 at 10 µM in the Eurofins-Panlabs radioligand binding assay (Eurofins_assay_278110). As to conditions: Compound concentration 10.0 uM. Also noted: ligand concentration 8 nM.
Data set [9] deals with Substance-P receptor (Homo sapiens) (UniProt P25103). The data set can be described thus: Inhibition of Tachykinin NK1 at 10 µM in the Eurofins-Panlabs radioligand binding assay (Eurofins_assay_255520). As to conditions: Compound concentration 10.0 uM. Also noted: ligand concentration 0.8 nM.
The target in a further data set is MAO-A (Homo sapiens, UniProt P21397). Kind of data set: Inhibition of Monoamine Oxidase MAO-A at compound concentration of 10.0 uM in the Eurofins-Panlabs enzyme assay (Eurofins_assay_140010). Conditions: human recombinant MAO-A expressed in insect Hi5 cells, probe Kynuramine, compound concentration 10 uM. Also noted: substrate with concentration 50 uM Kynuramine, incubation time 60 min, incubation temperature 37 C.

Data set [10] has as its target Mitogen-activated protein kinase 1 (Homo sapiens) (UniProt P28482). Kind of data set: Inhibition of Protein Serine/Threonine Kinase, MAPK1 (ERK2) at 10 µM in the Eurofins-Panlabs enzyme assay (Eurofins_assay_171120). Set-up: substrate with concentration. As to conditions: Compound concentration 10.0 uM.
The target in data set [11] is Protein phosphatase 3 catalytic subunit alpha (Homo sapiens) (UniProt Q08209). Kind of data set: Inhibition of Protein Serine/threonine Phosphatase, PPP3CA (Calcineurin, PP2B) at […] µM in the Eurofins-Panlabs enzyme assay (Eurofins_assay_188020). Set-up: substrate with concentration. As to conditions: Compound concentration 11.0 uM.
Data set [12] deals with Tyrosine-protein kinase Fyn (Homo sapiens) (UniProt P06241). Kind of data set: Inhibition of Protein Tyrosine Kinase, Fyn at 10 µM in the Eurofins-Panlabs enzyme assay (Eurofins_assay_172020). Conditions: Compound concentration 10.0 uM. Set-up: substrate with concentration.
Data set [13] deals with C-C chemokine receptor type 2 (Homo sapiens) (UniProt P41597). The data set can be described thus: Inhibition of Chemokine CCR2B at 10 µM in the Eurofins-Panlabs radioligand binding assay (Eurofins_assay_217550). Conditions: Compound concentration 10.0 uM.
In data set [14] the target is C-C chemokine receptor type 4 (Homo sapiens) (UniProt P51679). Kind of data set: Inhibition of Chemokine CCR4 at 10 µM in the Eurofins-Panlabs radioligand binding assay (Eurofins_assay_217660). Conditions: Compound concentration 10.0 uM.
A short description of data set [15]: Inhibition of Platelet-Derived Growth Factor (PDGF) at 10 µM in the Eurofins-Panlabs radioligand binding assay (Eurofins_assay_265200). Conditions: Compound concentration 10 uM; Detection method Radioligand Binding; Incubation temperature 25 °C; Incubation time 45 min; Ligand [3H]PDGF; Ligand concentration 0.02 nM; Non-specific ligand with concentration 10 nM PDGF; Source of protein Swiss mouse 3T3 embryo cells.

The species named for a further data set is Homo sapiens. Kind of data set: Inhibition of Tumor Necrosis Factor (TNF), Non-Selective at 10 µM in the Eurofins-Panlabs radioligand binding assay (Eurofins_assay_286510). Conditions: Compound concentration 10.0 uM.
The target of another data set is T2, Oxytocin receptor (Homo sapiens, UniProt P30559).
T2 sequence (P30559 whole entry): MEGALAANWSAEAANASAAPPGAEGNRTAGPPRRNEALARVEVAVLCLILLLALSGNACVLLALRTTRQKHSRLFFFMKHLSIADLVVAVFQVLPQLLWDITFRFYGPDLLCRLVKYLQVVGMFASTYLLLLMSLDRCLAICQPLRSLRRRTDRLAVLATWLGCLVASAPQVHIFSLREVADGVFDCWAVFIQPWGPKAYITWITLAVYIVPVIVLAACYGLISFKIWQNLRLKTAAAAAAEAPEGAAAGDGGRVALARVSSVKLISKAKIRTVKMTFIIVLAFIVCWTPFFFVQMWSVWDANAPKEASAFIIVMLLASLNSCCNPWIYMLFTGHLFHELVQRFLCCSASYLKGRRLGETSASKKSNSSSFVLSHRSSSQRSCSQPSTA
Kind of data set: Inhibition of Oxytocin at 1 µM in the Eurofins-Panlabs radioligand binding assay (Eurofins_assay_260900). Set-up: ligand concentration 0.8 nM, non-specific ligand with concentration 1 µM Oxytocin, incubation time 2 h, incubation temperature 25°C.

Data set [16] deals with AP2-associated protein kinase 1 (Homo sapiens) (UniProt Q2M2I8). The data set can be described thus: Inhibition of AAK1(h) at 10.0 µM in the Eurofins Kinase panel. As to conditions: Compound concentration 10.0 uM.
For data set [17], the target named is Serine/threonine-protein kinase Chk2 (Homo sapiens) (UniProt O96017). Kind of data set: Inhibition of CHK2(h) at 10.0 µM in the Eurofins Kinase panel. Conditions: Compound concentration 10.0 uM.
For data set [18], the target named is Tyrosine-protein kinase Fer (Homo sapiens) (UniProt P16591). The data set can be described thus: Inhibition of Fer(h) at 10.0 µM in the Eurofins Kinase panel. As to conditions: Compound concentration 10.0 uM.
Data set [19] concerns the target D(1A) dopamine receptor (Homo sapiens) (UniProt P21728). Conditions: Compound concentration 10.0 uM.
The target of data set [20] is Mitogen-activated protein kinase kinase kinase kinase 2 (Homo sapiens) (UniProt Q12851). Kind of data set: Inhibition of GCK (h) at 10.0 µM in the Eurofins Kinase panel. Conditions: Compound concentration 10.0 uM.

pIC50, pKi: −log10 of the molar value.

Sequence of Kappa-type opioid receptor (P41145 whole entry): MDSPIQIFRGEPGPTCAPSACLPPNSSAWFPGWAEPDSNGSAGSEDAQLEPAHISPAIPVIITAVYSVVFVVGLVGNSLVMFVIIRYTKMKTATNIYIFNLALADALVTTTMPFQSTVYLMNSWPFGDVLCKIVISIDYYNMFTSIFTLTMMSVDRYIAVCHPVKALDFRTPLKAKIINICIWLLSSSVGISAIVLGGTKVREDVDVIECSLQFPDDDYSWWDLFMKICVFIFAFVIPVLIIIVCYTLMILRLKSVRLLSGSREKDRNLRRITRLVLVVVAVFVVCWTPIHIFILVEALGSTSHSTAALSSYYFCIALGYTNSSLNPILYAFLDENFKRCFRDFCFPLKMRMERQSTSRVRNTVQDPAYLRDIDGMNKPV
Sequence of D(1A) dopamine receptor (Homo sapiens) (P21728 whole entry): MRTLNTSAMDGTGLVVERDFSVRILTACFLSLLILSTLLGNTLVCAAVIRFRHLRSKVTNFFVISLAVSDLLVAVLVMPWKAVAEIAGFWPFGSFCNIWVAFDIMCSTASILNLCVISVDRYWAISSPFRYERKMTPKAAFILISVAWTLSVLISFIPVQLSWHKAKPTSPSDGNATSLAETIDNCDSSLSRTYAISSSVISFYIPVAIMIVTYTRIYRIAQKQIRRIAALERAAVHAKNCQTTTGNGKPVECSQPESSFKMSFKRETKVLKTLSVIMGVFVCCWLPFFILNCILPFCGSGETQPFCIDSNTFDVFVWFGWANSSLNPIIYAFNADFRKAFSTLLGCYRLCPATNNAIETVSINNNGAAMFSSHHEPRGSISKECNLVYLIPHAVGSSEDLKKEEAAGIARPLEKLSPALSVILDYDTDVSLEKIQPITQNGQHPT
Sequence of Serine/threonine-protein kinase Chk2 (Homo sapiens) (O96017 whole entry): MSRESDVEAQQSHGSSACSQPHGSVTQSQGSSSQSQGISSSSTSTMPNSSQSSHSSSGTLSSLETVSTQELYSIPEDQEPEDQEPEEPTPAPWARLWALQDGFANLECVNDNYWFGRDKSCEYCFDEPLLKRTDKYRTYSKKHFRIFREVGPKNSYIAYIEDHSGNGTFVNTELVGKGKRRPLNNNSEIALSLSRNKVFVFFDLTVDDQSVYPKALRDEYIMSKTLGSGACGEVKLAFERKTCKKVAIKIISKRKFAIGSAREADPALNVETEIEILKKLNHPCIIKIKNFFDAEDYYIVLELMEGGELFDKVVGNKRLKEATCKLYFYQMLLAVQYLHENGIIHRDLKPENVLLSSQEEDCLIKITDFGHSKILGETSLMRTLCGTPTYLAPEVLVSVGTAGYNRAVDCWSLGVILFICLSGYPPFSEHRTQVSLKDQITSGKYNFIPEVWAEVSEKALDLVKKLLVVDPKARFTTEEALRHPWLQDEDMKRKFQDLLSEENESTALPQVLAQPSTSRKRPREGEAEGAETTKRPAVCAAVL
Sequence of Substance-P receptor (Homo sapiens) (P25103 whole entry): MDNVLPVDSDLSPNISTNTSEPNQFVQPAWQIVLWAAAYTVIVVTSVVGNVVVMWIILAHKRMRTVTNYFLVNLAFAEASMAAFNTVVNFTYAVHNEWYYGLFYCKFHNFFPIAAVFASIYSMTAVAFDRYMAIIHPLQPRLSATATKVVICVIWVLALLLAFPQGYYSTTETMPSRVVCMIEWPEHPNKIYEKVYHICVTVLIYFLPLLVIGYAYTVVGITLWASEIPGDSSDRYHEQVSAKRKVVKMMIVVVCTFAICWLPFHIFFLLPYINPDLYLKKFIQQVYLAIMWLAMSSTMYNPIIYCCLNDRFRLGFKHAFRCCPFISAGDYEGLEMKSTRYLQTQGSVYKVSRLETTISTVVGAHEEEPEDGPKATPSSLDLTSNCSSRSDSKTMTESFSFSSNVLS
Sequence of Mitogen-activated protein kinase 1 (Homo sapiens) (P28482 whole entry): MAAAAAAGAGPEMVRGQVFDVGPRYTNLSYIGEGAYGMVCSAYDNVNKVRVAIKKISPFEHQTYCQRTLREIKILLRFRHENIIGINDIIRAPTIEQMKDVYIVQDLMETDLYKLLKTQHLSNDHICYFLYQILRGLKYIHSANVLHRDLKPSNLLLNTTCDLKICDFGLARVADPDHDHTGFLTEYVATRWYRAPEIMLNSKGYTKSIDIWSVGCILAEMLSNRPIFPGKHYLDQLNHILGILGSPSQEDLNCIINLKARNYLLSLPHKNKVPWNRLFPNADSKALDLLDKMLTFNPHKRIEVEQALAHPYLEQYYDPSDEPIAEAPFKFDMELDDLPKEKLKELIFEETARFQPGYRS
Sequence of C-C chemokine receptor type 4 (Homo sapiens) (P51679 whole entry): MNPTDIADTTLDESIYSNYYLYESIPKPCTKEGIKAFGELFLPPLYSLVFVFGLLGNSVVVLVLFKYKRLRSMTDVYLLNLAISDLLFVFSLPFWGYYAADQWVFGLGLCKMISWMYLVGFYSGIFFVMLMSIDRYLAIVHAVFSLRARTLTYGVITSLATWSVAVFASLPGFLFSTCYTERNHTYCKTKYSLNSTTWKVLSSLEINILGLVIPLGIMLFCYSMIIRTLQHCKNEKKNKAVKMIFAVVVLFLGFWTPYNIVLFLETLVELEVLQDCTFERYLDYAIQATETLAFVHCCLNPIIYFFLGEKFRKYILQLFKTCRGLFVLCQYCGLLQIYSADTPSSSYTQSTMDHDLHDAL
Sequence of MAO-A (P21397 whole entry): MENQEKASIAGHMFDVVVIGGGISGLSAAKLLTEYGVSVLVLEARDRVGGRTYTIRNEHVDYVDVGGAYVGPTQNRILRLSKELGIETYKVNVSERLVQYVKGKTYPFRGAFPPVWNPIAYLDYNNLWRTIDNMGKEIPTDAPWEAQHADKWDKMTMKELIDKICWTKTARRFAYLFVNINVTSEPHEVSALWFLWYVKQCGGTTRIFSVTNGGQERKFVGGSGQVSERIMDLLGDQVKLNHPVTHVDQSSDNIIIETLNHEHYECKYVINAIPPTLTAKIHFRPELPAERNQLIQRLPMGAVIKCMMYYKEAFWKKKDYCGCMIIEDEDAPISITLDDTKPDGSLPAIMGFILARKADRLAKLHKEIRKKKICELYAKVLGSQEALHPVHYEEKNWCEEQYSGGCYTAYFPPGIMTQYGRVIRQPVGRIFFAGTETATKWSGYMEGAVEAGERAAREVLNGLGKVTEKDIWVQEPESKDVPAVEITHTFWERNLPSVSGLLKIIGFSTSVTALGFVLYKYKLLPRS
Sequence of Tyrosine-protein kinase Fer (Homo sapiens) (P16591 whole entry, looked up): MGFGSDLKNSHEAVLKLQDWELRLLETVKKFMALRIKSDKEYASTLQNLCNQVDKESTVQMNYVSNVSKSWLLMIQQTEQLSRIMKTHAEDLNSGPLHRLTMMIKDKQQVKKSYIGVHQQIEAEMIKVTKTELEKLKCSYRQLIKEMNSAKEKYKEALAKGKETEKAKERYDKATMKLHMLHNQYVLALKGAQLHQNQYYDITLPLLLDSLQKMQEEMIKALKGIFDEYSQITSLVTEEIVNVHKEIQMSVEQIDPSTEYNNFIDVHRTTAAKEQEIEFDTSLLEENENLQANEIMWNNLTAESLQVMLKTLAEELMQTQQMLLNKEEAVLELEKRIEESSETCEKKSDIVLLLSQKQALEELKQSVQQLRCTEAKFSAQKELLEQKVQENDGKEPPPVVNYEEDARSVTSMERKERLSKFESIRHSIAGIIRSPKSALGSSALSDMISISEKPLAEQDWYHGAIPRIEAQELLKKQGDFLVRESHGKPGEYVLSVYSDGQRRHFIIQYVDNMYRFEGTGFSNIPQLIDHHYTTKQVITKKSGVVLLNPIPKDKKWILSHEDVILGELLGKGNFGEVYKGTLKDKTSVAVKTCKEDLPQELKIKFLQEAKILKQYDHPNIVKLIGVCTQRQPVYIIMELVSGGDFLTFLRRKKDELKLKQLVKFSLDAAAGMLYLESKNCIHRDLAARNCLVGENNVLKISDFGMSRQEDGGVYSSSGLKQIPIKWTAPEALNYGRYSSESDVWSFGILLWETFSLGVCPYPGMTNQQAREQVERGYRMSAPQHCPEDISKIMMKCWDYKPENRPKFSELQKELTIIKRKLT
Sequence of Mitogen-activated protein kinase kinase kinase kinase 2 (Homo sapiens) (Q12851 whole entry, looked up): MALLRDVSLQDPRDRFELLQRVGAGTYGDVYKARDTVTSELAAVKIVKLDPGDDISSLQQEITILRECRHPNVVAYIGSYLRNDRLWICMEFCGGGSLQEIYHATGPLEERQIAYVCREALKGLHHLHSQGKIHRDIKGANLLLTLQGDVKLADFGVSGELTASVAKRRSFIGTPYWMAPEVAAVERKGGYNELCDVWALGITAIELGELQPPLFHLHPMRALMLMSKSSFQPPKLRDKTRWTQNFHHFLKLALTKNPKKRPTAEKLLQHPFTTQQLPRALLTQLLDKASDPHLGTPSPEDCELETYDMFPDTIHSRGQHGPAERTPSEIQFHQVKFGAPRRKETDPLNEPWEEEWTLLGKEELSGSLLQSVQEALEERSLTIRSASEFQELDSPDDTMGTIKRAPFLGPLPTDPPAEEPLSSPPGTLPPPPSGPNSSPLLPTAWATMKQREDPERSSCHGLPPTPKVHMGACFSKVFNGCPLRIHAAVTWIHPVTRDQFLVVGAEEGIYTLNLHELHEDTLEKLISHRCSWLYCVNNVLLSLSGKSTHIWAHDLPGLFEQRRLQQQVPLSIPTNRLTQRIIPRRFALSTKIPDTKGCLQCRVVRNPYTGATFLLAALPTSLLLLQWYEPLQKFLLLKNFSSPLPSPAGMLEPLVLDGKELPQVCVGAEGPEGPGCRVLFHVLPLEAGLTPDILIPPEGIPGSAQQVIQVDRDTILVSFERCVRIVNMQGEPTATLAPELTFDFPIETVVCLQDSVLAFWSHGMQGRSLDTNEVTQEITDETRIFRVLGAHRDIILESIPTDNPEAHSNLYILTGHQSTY
Sequence of Sigma non-opioid intracellular receptor 1 (Homo sapiens) (Q99720 whole entry): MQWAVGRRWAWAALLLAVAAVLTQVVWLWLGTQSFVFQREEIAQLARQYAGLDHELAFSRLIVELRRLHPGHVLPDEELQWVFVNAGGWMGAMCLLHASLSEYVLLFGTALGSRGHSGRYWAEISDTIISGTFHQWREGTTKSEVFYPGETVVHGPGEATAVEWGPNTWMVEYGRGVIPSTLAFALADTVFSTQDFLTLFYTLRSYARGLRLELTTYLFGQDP

As for `O=c1n(Cc2cncn2-c2cccc(Cl)c2)nc(-c2ccc(Cl)cc2)n1C[C@H](O)C(F)(F)F`, the inhibition is 3% in [1]; -8.98% in [2]; -7.62% in data set [3]; -5% in the data set listed under Oryctolagus cuniculus; 25% in [4]; 12% in [5].

As to `C[C@H](O)c1nc(Cn2nc(-c3ccc(Cl)cc3)n(C[C@H](O)C(F)(F)F)c2=O)nn1-c1cccc(Cl)c1` [PECAVAPTAN], the pKi in data set [6] (read-out: Ki) is 5.66; at Oxytocin receptor it was 8.30. Besides, the Ki in [6] (read-out: pKi (converted)) was 2140 nM. Besides, the inhibition in data set [7] was 14%; in data set [8], 15%; in data set [9], 20%; in data set [10], -2%; in [11], 32%; in [12], -6%. The inhibition was 2% in data set [13]; -2% in data set [14]; -1% in the data set filed under Homo sapiens; -9.01% in data set [16]; -8.52% in data set [17]; -2.1% in data set [18]. Moreover, the inhibition was -6.55% in data set [19] and -4.72% in [20]. Further, the inhibition at 60 min, 10 µM on MAO-A was -3% (not active). In addition, in data set [15], the inhibition at 10 µM is 5% (not active). Moreover, at Oxytocin receptor, the pIC50 was 7.81.
